According to publication PMC7139703, “Thiopurine Derivative-Induced Fpg/Nei DNA Glycosylase Inhibition: Structural, Dynamic and Functional Insights” (International Journal of Molecular Sciences, 2020):
Like-named read-outs stand apart in the source and are kept apart here.

Legend:
LlFpg = target: T1, LlFpg (Lactococcus lactis subsp. cremoris, UniProt P42371); experiment: Enzyme kinetics of 8-oxoG excision by LlFpg in the presence of 2TX (double-reciprocal, Dixon, Cornish-Bowden plots); type: biochemical
T1 construct: made in house; host or cells: E. coli BH540 (fpg defective)
From the text: Kinetic experiments with LlFpg in the presence of 2TX partially support this last hypothesis (Figure S3). Although LlFpg was inhibited by 2TX, as was its E. coli homolog (EcFpg), the raw kinetic data from all the experiments appeared to be very complicated and difficult to interpret. […] In this case, no inhibitory constant (Ki) can be determined. This mechanism (also supported by the inhibition suppression by TCEP, Figure S2) is likely superimposed on other inhibitory mechanisms, a factor that makes it difficult to analyze kinetic data. To clarify, we separately analyzed kinetic data obtained for low and high 2TX concentrations (Figure S3). As expected, we observed a linear dependence of the reciprocal velocity (1/v) as a function of the reciprocal substrate concentrations (1/S) with and without the inhibitor. […] These values compare well with those determined previously for the excision of FapyG and 8-oxoG by EcFpg. […] This value is consistent with an interaction of 2TX in the active site of the enzyme. This inhibitory mechanism has not been previously described for the EcFpg enzyme. […] This mode of inhibition is in agreement with the possibility that 2TX can bind outside the active site on the free and bound enzyme. […]

LlFpg/DNA complex C1 = target: T2, LlFpg/DNA complex C1 (Lactococcus lactis subsp. cremoris, UniProt P42371); experiment: EMSA, Fpg DNA binding to 14-mer [THF:C] duplex, complex C1 (lesion recognition complex, Fpg/DNA 1/1); conditions: pre-incubation of Fpg 20 min at 4 °C; micromolar to millimolar inhibitor
T2 construct: made in house; host or cells: E. coli BH540 (fpg defective)
T2 sequence (P42371 2-273, one chain of several): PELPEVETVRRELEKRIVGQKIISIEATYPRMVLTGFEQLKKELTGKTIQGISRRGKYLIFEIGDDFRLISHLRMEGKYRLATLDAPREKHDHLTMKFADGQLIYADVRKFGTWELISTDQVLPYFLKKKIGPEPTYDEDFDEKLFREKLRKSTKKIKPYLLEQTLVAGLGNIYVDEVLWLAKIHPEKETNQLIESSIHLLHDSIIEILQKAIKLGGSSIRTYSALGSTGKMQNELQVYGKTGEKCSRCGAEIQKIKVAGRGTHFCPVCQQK

T1 sequence (P42371 2-273): as the sequence (P42371 2-273, one chain of several) above

**Q.** With `O=c1[nH]c(=S)[nH]c2nc[nH]c12` [Compound 2TX, 2-thioxanthine, reference compound] as the compound, how does the Ki (LlFpg; high 2TX concentrations, uncompetitive, read-out: apparent Ki (Kiu)) read?
**A.** 24.9 ± 6.56 µM

**Q.** And the Ki (LlFpg; low 2TX concentrations, partially competitive, read-out: apparent Ki (Kic))?
**A.** 2.19 ± 0.56 µM

**Q.** And the “Fpg ability to bind DNA after pre-incubation with inhibitor” value (LlFpg/DNA complex C1)?
**A.** completely abolished
